Publication PMC10041525, “New Dual Inhibitors of Bacterial Topoisomerases with Broad-Spectrum Antibacterial Activity and In Vivo Efficacy against Vancomycin-Intermediate Staphylococcus aureus” (Journal of Medicinal Chemistry, 2023)
Where two headings read alike, the source gives them in different places.

Assays:
DNA gyrase from E. coli = molecular target: T1, DNA gyrase from E. coli (Escherichia coli, UniProt P0AES6); assay: supercoiling HTS plate assay; assay type: biochemical; details: IC50 [nM] E. coli DNA gyrase
T1 construct: purchased Inspiralis
Experimental: (§1) All compounds were tested for their inhibitory activities against DNA gyrase and topo IV from E. coli in supercoiling and relaxation high-throughput plate assays, respectively. Our new series of inhibitors were then tested against a panel of Gram-positive and Gram-negative bacteria.
(§2) Seven concentrations of the inhibitors were used to determine IC50 values which were then calculated with GraphPad Prism 6.0 software. Three independent measurements were performed to determine IC50 values, and mean values are reported as the final result.

topo IV from E. coli = molecular target: T2, topo IV from E. coli (Escherichia coli, UniProt P20083); assay: relaxation HTS plate assay; assay type: biochemical
T2 construct: purchased Inspiralis
Experimental: as §1, §2

S. aureus ATCC 29213 = assay: MIC broth microdilution (CLSI); assay type: cell-based; details: Staphylococcus aureus, ATCC29213
Experimental: (§3) Cation-adjusted Mueller Hinton broth 2 (MHBII) was used for bacterial growth under standard laboratory conditions and for antimicrobial susceptibility tests. MHBII broth was prepared by dissolving 22 g of MHBII powder [containing beef extract (3 g), acid hydrolysate of casein (17.5 g), and starch (1.5 g); Becton Dickinson and Co.] in 1 L of water. To prepare MHBII agar, 14 g of agar (Bacto; Molar Chemicals) was added to 1 L of broth.
(§4) Bacterial strains were inoculated onto MHBII agar plates and grown overnight at 37 °C. Next, three individual colonies from each strain were inoculated into 1 mL of MHBII medium and propagated at 37 °C overnight, with agitation at 250 rpm. For Enterococcus sp., the cells were plated in brain–heart infusion [(BHI) medium] agar plates, and BHI broth was used to determine the MICs. […] Following the dilutions, each well was seeded with 5 × 10^4 bacterial cells (in 100 μL final volume). Each measurement was performed in three parallel replicates, and to avoid possible edge effects in the microwell plates, the outside rows (A, H) were filled with sterile medium. Following the inoculations, the plates were covered with the lids and wrapped in polyethylene plastic bags, to minimize evaporation but to allow O2 transfer. […] After incubation, the OD600 of each well was measured using a microplate reader (Synergy 2; Biotek).

[1] = system: Enterococcus faecalis ATCC 29212; assay: MIC broth microdilution (CLSI); assay type: cell-based, E. faecalis
Experimental: as §3, with “MICs (Tables 1 and S1–S3) were determined with a standard serial broth microdilution technique according to Clinical and Laboratory Standards Institute (CLSI) guidelines.[45] Cation-adjusted” for “Cation-adjusted”
(§5) Bacterial strains were inoculated onto MHBII agar plates and grown overnight at 37 °C. Next, three individual colonies from each strain were inoculated into 1 mL of MHBII medium and propagated at 37 °C overnight, with agitation at 250 rpm. For Enterococcus sp., the cells were plated in brain–heart infusion [(BHI) medium] agar plates, and BHI broth was used to determine the MICs. […] The highest final DMSO concentration in the experiments was 0.64% (in the case of the 64 μg/mL concentration of the inhibitor). Following the dilutions, each well was seeded with 5 × 10^4 bacterial cells (in 100 μL final volume). Each measurement was performed in three parallel replicates, and to avoid possible edge effects in the microwell plates, the outside rows (A, H) were filled with sterile medium. Following the inoculations, the plates were covered with the lids and wrapped in polyethylene plastic bags, to minimize evaporation but to allow O2 transfer. The plates were incubated at 37 °C under continuous shaking at 150 rpm for 18 h. After incubation, the OD600 of each well was measured using a microplate reader (Synergy 2; Biotek). The MICs were defined as the antibiotic concentrations which inhibited the growth of the bacterial cultures; that is, the drug concentration where the average OD600 increment of the three technical replicates was below 1.5-fold the background OD increment.

E. coli ATCC 25922 = assay: MIC broth microdilution (CLSI); assay type: cell-based; details: Escherichia coli, ATCC25922
Experimental: as §3, with “MICs (Tables 1 and S1–S3) were determined with a standard serial broth microdilution technique according to Clinical and Laboratory Standards Institute (CLSI) guidelines.[45] Cation-adjusted” for “Cation-adjusted”
as §5

E. faecium ATCC 700221 = assay: MIC broth microdilution (CLSI); assay type: cell-based; details: Enterococcus faecium, ATCC700221
Experimental: as §3, with “MICs (Tables 1 and S1–S3) were determined with a standard serial broth microdilution technique according to Clinical and Laboratory Standards Institute (CLSI) guidelines.[45] Cation-adjusted” for “Cation-adjusted”
as §5

[2] = system: S. aureus (MRSA) ATCC 43300; assay: MIC broth microdilution (CLSI); assay type: cell-based; details: Staphylococcus aureus
Experimental: as §3, with “MICs (Tables 1 and S1–S3) were determined with a standard serial broth microdilution technique according to Clinical and Laboratory Standards Institute (CLSI) guidelines.[45] Cation-adjusted” for “Cation-adjusted”
as §5

[3] = system: S. aureus (VISA) ATCC 700699; assay: MIC broth microdilution (CLSI); assay type: cell-based
Experimental: as §3, with “MICs (Tables 1 and S1–S3) were determined with a standard serial broth microdilution technique according to Clinical and Laboratory Standards Institute (CLSI) guidelines.[45] Cation-adjusted” for “Cation-adjusted”
as §5

A. baumannii ATCC 19606 = assay: MIC broth microdilution (CLSI); assay type: cell-based; details: Acinetobacter baumannii, ATCC19606
Experimental: as §3, with “MICs (Tables 1 and S1–S3) were determined with a standard serial broth microdilution technique according to Clinical and Laboratory Standards Institute (CLSI) guidelines.[45] Cation-adjusted” for “Cation-adjusted”
as §5
(§6) cMIC, minimum inhibitory concentration
(§7) Bacterial strains that were used: S. aureus ATCC 29213, S. aureus (MRSA) ATCC 43300, S. aureus (VISA) ATCC 700699, E. faecalis ATCC 29212, E. faecium ATCC 700221,
(§8) E. coli ATCC 25922, P. aeruginosa ATCC 27853 (PAO1 for compounds 7l, 8b, 14), A. baumannii ATCC 17978 (ATCC 19606 for compounds 7l, 8b, 14), K. pneumoniae ATCC
(§9) Measurements were performed according to the Clinical and Laboratory Standards Institute guidelines, with three independent measurements.

K. pneumoniae ATCC 13883 = assay: MIC broth microdilution (CLSI); assay type: cell-based; details: Klebsiella pneumoniae, ATCC13883; ATCC 13883 used for 7l, 8b, 14, 16b, 16c
Experimental: as §3, with “MICs (Tables 1 and S1–S3) were determined with a standard serial broth microdilution technique according to Clinical and Laboratory Standards Institute (CLSI) guidelines.[45] Cation-adjusted” for “Cation-adjusted”
as §5, §6, §7, §8, §9

P. aeruginosa PAO1 = assay: MIC broth microdilution (CLSI); assay type: cell-based; details: Pseudomonas aeruginosa; PAO1 used for 7l, 8b, 14, 16b, 16c
Experimental: as §3, with “MICs (Tables 1 and S1–S3) were determined with a standard serial broth microdilution technique according to Clinical and Laboratory Standards Institute (CLSI) guidelines.[45] Cation-adjusted” for “Cation-adjusted”
as §5, §6, §7, §8, §9

A. baumannii ATCC 17978 = assay: MIC broth microdilution (CLSI); assay type: cell-based; details: Acinetobacter baumannii, ATCC17978
Experimental: as §3, §4

[4] = system: Enterobacter cloacae spp. cloacae ATCC 13047; assay: MIC broth microdilution (CLSI); assay type: cell-based
Experimental: as §3, with “MICs (Tables 1 and S1–S3) were determined with a standard serial broth microdilution technique according to Clinical and Laboratory Standards Institute (CLSI) guidelines.[45] Cation-adjusted” for “Cation-adjusted”
as §5

K. pneumoniae ATCC 10031 = assay: MIC broth microdilution (CLSI); assay type: cell-based; details: Klebsiella pneumoniae, ATCC10031
Experimental: as §3, with “MICs (Tables 1 and S1–S3) were determined with a standard serial broth microdilution technique according to Clinical and Laboratory Standards Institute (CLSI) guidelines.[45] Cation-adjusted” for “Cation-adjusted”
as §5

P. aeruginosa ATCC 27853 = assay: MIC broth microdilution (CLSI); assay type: cell-based; details: Pseudomonas aeruginosa, ATCC27853
Experimental: as §3, with “MICs (Tables 1 and S1–S3) were determined with a standard serial broth microdilution technique according to Clinical and Laboratory Standards Institute (CLSI) guidelines.[45] Cation-adjusted” for “Cation-adjusted”
as §5

in vitro = in vitro ADME, mouse; details: male, CD-1, mouse; for fraction unbound at 4 h, 5 μM: plasma (pooled)
Experimental: The PPB studies were performed by Selvita d.o.o. (Zagreb, Croatia) in mouse plasma (CD-1 male, pooled, commercially obtained from BioIVT) via equilibrium dialysis. Compounds were assayed at 5 μM (0.5% DMSO) in two replicates, and incubation time was 4 h at 37 °C. Samples were taken at 0 min and 4 h. Aliquots from both buffer and plasma compartment matrix were matched and mixed with 6 volumes of STOP solution (acetonitrile/methanol (2:1) + internal standard – diclofenac) and analyzed by LC–MS/MS. Assay controls were caffeine (low), verapamil (moderate binding), and nicardipine (very high binding), and protein contamination was checked.

[5] = mitochondrial toxicity glu/gal assay; assay type: cell-based; details: human, 0.1 µM, read-out: cell viability (ATP), % of control
Experimental: HepG2 cells were seeded in two 96-well plates at a density of 50,000 cells per well in 100 μL of growth medium. For the first plate, the growth medium contained glucose and for the second plate, it contained galactose. Cells were incubated overnight in a 5% CO2 atmosphere at 37 °C and allowed to attach onto the wells. […] The medium contained positive control (Rotenone). […] Luminescence was measured with Tecan Infinite 200 pro luminometer, and the values from each well treated with compound were compared to the values given by the negative control (medium only). The inhibition of mitochondrial function was determined by comparing ATP levels in galactose and glucose exposed cells. […]

[6] = read-out: MIC [µg/mL](S. aureus ATCC 29213)
[7] = ATCC 19606 used for 7l, 8b, 14, 16b, 16c, read-out: MIC
[8] = read-out: MIC [µg/mL] (A. baumannii ATCC 19606 for compounds 7l, 8b, 14)

T2 sequence (P0AFI2 whole entry): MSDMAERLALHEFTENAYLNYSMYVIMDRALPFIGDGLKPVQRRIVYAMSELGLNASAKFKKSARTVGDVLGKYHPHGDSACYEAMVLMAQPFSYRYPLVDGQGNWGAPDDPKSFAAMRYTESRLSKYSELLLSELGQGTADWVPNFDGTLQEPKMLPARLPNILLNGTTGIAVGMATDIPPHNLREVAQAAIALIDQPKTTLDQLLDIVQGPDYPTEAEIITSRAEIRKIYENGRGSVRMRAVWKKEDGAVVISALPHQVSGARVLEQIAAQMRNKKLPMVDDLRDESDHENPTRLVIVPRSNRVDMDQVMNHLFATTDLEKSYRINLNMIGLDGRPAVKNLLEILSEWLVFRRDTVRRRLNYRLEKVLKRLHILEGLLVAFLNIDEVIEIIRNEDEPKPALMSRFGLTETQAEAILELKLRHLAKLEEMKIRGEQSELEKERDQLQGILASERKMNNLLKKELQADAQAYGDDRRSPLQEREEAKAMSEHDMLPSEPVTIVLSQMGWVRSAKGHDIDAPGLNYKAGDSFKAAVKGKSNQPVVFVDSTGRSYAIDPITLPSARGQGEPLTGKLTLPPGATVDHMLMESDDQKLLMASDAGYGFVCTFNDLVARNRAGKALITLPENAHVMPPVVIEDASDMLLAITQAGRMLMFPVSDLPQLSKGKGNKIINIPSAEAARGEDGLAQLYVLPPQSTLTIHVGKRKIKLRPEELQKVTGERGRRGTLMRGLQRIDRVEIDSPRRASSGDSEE
T2 sequence (P20083 whole entry): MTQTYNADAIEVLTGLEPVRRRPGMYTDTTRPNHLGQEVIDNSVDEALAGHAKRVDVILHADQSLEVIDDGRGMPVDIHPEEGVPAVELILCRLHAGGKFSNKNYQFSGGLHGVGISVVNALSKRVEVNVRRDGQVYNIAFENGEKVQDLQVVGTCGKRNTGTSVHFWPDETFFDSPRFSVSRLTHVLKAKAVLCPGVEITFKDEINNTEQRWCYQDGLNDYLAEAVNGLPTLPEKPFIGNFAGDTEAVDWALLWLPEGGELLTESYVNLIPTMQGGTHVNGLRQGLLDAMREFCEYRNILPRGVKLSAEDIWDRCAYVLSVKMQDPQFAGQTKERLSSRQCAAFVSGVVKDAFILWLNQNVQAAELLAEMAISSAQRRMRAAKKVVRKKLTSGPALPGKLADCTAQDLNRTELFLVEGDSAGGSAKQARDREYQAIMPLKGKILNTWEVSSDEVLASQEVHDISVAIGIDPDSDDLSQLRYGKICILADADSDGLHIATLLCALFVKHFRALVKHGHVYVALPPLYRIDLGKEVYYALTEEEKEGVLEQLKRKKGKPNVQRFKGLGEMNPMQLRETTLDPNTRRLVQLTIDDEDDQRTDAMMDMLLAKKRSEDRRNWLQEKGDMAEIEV

| Compound | IC50 (DNA gyrase from E. coli) [nM] | IC50 (topo IV from E. coli; IC50 [nM] E. coli TopoIV) [nM] | MIC (S. aureus ATCC 29213; read-out: MIC) [µg/mL] | MIC (S. aureus ATCC 29213; [6]) [µg/mL] | MIC (E. coli ATCC 25922; read-out: MIC) [µg/mL] | MIC (A. baumannii ATCC 19606; [7]) [µg/mL] | MIC (A. baumannii ATCC 19606; [8]) [µg/mL] | MIC (K. pneumoniae ATCC 13883) [µg/mL] | MIC (P. aeruginosa PAO1) [µg/mL] | other results |
| --- | --- | --- | --- | --- | --- | --- | --- | --- | --- | --- |
| Cc1[nH]c(C(=O)Nc2nc3c(N4CC[C@H](N(C)C)C4)cc(C(=O)O)cc3s2)c(Cl)c1Cl.Cl.N [7l, (S)-2-(3,4-Dichloro-5-methyl-1H-pyrrole-2-carboxamido)-4-(3-(dimethylamino)pyrrolidin-1-yl)benzo[d]thiazole-6-carboxylic Acid] | < 10 | 210 ± 80 | 4 | 4 | > 64 | > 64 | > 64 | > 64 | > 64 | MIC ([1]; Enterococcus faecalis, ATCC29212, read-out: MIC): 1 µg/mL; MIC (E. faecium ATCC 700221; read-out: MIC): 0.25 µg/mL; MIC ([2]; read-out: MIC): 2 µg/mL; MIC ([2]; read-out: MIC [µg/mL](S. aureus MRSA ATCC4330)): 2 µg/mL; MIC ([3]; Staphylococcus aureus, read-out: MIC): 0.5 µg/mL |
| Cc1[nH]c(C(=O)Nc2nc3c(N4CCNCC4)cc(C(=O)O)cc3s2)c(Cl)c1Cl.Cl [8b, 4-(6-Carboxy-2-(3,4-dichloro-5-methyl-1H-pyrrole-2-carboxamido)benzo[d]thiazol-4-yl)piperazin-1-ium Chloride] | < 10 | 120 ± 15 | 32 | 32 | 16 | 64 | 64 | 64 | > 64 |  |
| Cc1[nH]c(C(=O)Nc2nc3c(N4CCOCC4)cc(C(=O)O)cc3s2)cc1C#N [16c, 2-(4-Cyano-5-methyl-1H-pyrrole-2-carboxamido)-4-morpholinobenzo[d]thiazole-6-carboxylic Acid] | 32 ± 9 |  | > 64 | > 64 | > 64 | > 64 |  | > 64 | > 64 | IC50 (topo IV from E. coli; read-out: IC50): 440 nM; MIC (A. baumannii ATCC 17978; read-out: MIC [µg/mL] (A. baumannii ATCC 17978)): > 64 µg/mL |
| Cc1[nH]c(C(=O)Nc2nc3c(OCc4ccccc4)cc(C(=O)O)cc3s2)c(Cl)c1Cl [E] |  |  |  |  |  |  |  |  |  | MIC (A. baumannii ATCC 17978): 2 µg/mL; MIC (S. aureus ATCC 29213): 0.5 µg/mL; MIC [1]: <0.03125 µg/mL; MIC ([1]; Enterococcus faecalis, ATCC29212): < 0.0312 µg/mL; MIC (E. coli ATCC 25922): 16 µg/mL; MIC (E. faecium ATCC 700221): 0.0625 µg/mL; MIC [4]: >64 µg/mL; MIC ([4]; Enterobacter cloacae, ATCC13047): > 64 µg/mL; MIC (K. pneumoniae ATCC 10031): 4 µg/mL; MIC (P. aeruginosa ATCC 27853): 2 µg/mL; MIC [2]: 0.0625 µg/mL; MIC [3]: <0.03125 µg/mL; MIC ([3]; Staphylococcus aureus): < 0.0312 µg/mL; fraction unbound at 4 h, 5 μM (in vitro; mouse plasma, 5 µM, 4 h, read-out: fu, fraction unbound): < 0.001; fraction unbound at 4 h, 5 μM (in vitro; read-out: plasma protein binding (PPB)): < 0.01; recovery at 4 h, 5 μM (in vitro; plasma protein binding assay): 94.1% |
| C=C(C)[C@H]1Cc2c(ccc3c2O[C@@H]2COc4cc(OC)c(OC)cc4[C@@H]2C3=O)O1 [Rot, Rotenone] |  |  |  |  |  |  |  |  |  | viability at 24 h, 0.1 µM ([5]; galactose): 1%; viability at 24 h, 0.1 µM ([5]; glucose): 64% |
| Cc1[nH]c(C(=O)Nc2nc3c(CN4CCOCC4)cc(C(=O)O)cc3s2)c(Cl)c1Cl.Cl [compound 14, 4-((6-Carboxy-2-(3,4-dichloro-5-methyl-1H-pyrrole-2-carboxamido)benzo[d]thiazol-4-yl)methyl)morpholin-4-ium Chloride] | 13 ± 5 | 460 ± 120 | 16 | 16 | > 64 | > 64 | > 64 | 64 | > 64 |  |
